These results are taken from patent US20040122065A1 (priority 2002, published 2004).

This data set in a line: Pharmacokinetic crossover trial: 2 mg sublingual tablet vs 4 mg commercial oral tizanidine (Zanaflex), plasma tizanidine by HPLC. It counts as in vivo. The conditions noted are these: human. The protocol: Two groups were randomized and there was a one week washout period between administrations. The volunteers were in the fasted state when the drugs were administered. The sublingual tablets were placed under the tongue for 5 minutes and tablet remnants, if any, were swallowed. The oral formulation was administered with a glass of water. Blood samples were taken at 0, 0.5, 1.0, 1.5, 2.0, 2.5, 3.0, 4.0, 5.0, 6.0 and 7.0 hours after administration. […] The samples were blinded from the analysts.

A value given as a limit tells only on which side of the number the result lay.

On to `Clc1ccc2nsnc2c1NC1=NCCN1` [Tizanidine, 5-Chloro-N-(4,5-dihydro-1H-imidazol-2-yl)-2,1,3-benzothiadiazol-4-amine], for which the concentration at 0 h is, setting by setting: (other: sublingual, 2 mg, Plasma Tizanidine Levels, sublingual delivery of 2 mg tizanidine (sublingual tablet), fasted, 0 h after dosing, one column per test subject) < 98.4 ng/g; (po, 4 mg) < 98.4 ng/g.
